Key:
[1] = target: Histone-lysine N-methyltransferase EZH2 (Homo sapiens) (UniProt Q15910); assay: Inhibition of EZH2 in human CD19+ B cells assessed as decrease in H3K27me3 levels measured as percentage abundance at 4 uM after 10 days by Western blot analysis relative to control; type: cell-based; set-up: scale not given: the % may be the effect or the level left; conditions: CD19 positive B cell, time 10.0 day
[2] = target: Histone-lysine N-methyltransferase EZH2 (Homo sapiens) (UniProt Q15910); assay: Inhibition of EZH2 in human CD19+ B cells assessed as decrease in H3K27me3 levels measured as percentage abundance at 4 uM after 4 days by Western blot analysis relative to control; type: cell-based; set-up: scale not given: the % may be the effect or the level left; conditions: CD19 positive B cell, time 4.0 day
[3] = target: Histone-lysine N-methyltransferase EZH2 (Homo sapiens) (UniProt Q15910); assay: Inhibition of EZH2 in human CD19+ B cells assessed as decrease in H3K27me3 levels measured as percentage abundance at 4 uM after 8 days by Western blot analysis relative to control; type: cell-based; set-up: scale not given: the % may be the effect or the level left; conditions: CD19 positive B cell, time 8.0 day
[4] = target: Histone-lysine N-methyltransferase EZH2 (Homo sapiens) (UniProt Q15910); assay: Inhibition of EZH2 in human CD19+ B cells assessed as decrease in cell viability at 4 uM after 5 to 13 days by annexin-V/PI staining based flow cytometry; conditions: CD19 positive B cell, time 5-13 day, TDE = time-dependent effect
[5] = target: Histone-lysine N-methyltransferase EZH2 (Homo sapiens) (UniProt Q15910); assay: Inhibition of EZH2 in human CD19+ B cells assessed as decrease in H3K27me3 levels measured as percentage abundance at 4 uM after 6 days by Western blot analysis relative to control; type: cell-based; set-up: scale not given: the % may be the effect or the level left; conditions: CD19 positive B cell, time 6.0 day
[6] = target: Histone-lysine N-methyltransferase EZH2 (Homo sapiens) (UniProt Q15910); assay: Inhibition of EZH2 in human CD19+ B cells assessed as decrease in H3K27me3 levels measured as percentage abundance at 4 uM by Western blot analysis relative to control; type: cell-based; set-up: scale not given: the % may be the effect or the level left; conditions: CD19 positive B cell
[7] = target: Histone-lysine N-methyltransferase EZH2 (Homo sapiens) (UniProt Q15910); assay: Inhibition of EZH2 in human CD19+ B cells assessed as decrease in H3K27me3 levels measured as percentage abundance at 4 uM after 2 days by Western blot analysis relative to control; type: cell-based; set-up: scale not given: the % may be the effect or the level left; conditions: CD19 positive B cell, time 2.0 day

Chain of Histone-lysine N-methyltransferase EZH2 (Homo sapiens) (Q15910 whole entry, looked up): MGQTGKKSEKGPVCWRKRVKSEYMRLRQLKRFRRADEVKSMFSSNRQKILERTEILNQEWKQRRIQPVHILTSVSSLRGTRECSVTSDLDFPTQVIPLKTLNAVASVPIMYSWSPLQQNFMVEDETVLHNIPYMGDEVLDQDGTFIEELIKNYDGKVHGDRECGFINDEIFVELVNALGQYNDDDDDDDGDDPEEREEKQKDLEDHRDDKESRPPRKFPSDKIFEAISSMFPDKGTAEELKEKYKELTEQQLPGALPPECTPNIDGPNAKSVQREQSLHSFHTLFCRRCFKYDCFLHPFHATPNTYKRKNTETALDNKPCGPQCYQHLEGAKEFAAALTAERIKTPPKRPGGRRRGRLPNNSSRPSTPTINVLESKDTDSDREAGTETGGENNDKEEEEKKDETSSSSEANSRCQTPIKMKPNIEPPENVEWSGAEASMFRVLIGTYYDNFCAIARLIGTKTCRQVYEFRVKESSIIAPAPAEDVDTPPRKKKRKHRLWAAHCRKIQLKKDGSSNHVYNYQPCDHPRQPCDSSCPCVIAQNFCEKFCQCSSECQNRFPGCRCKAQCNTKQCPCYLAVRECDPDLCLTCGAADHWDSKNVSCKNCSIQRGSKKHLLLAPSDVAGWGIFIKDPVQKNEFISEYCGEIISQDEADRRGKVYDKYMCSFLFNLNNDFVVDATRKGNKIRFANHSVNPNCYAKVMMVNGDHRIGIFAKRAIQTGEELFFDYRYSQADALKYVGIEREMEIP

- Activity [1]: 65.2%
- Activity [2]: 100%
- Activity [3]: 65.1%
- Activity [5]: 99.5%
- Activity [6]: 66%
- Activity [7]: 99.6%
SMILES: CCCc1cc(C)[nH]c(=O)c1CNC(=O)c1cc(-c2ccnc(N3CCN(C)CC3)c2)cc2c1cnn2C(C)C
- inhibition [4]: Tde
